Key:
[1] = tested on: mouse erythrocytes; assay: Hemolytic assay; format: cell-based; conditions: 12.5 μg/mL; 2.5% (v/v) mouse erythrocytes in PBS, 30 min at 37 °C, absorbance at 540 nm; at least three independent experiments in triplicate
Description: This experiment was approved by the Institutional Animal Care and Use Committee (IACUC) of the National Institute of Agricultural Sciences (approval number: NAS-202014). The hemolytic activity of the peptides was determined by monitoring the release of hemoglobin from mouse erythrocytes at 540 nm. For the hemolytic assay, 20 μL of each peptide solution at a predetermined concentration was added to 180 μL of a 2.5% (v/v) suspension of mouse erythrocytes in phosphate-buffered saline (PBS). Melittin (Sigma, USA), a hemolytic and α-helical peptide isolated from bee venom, was used as the positive control. This mixture was incubated for 30 min at 37 °C, and 600 μL of PBS was then added to each tube. After 3 min of centrifugation at 10,000× g, the supernatant was removed, and the absorbance was measured at 540 nm. Evaluations were made from the results of at least three independent experiments, each carried out in triplicate.

[2] = cited from earlier work
Source text: (§1) Papilio xuthus (P. xuthus), commonly known as the swallowtail butterfly, is found in the far east Asian regions of Korea, Japan, China, Taiwan, and Myanmar. Papiliocin is the 37 residue α-helical cecropin-like AMP isolated from an immune challenged larvae of swallowtail butterfly. […] Additionally, the antibacterial and antifungal activity of papiliocin is observed in multidrug- resistant bacterial and fungal strains, respective ...

[3] = tested on: Gram-positive and Gram-negative bacteria; conditions: effect more pronounced in Gram-negative strains; cited from earlier work
Source text: as §1

[4] = tested on: mammalian cells; conditions: cited from earlier work
Source text: as §1

Row | Molecule | hemolysis of mouse red blood cells [1] [%] | anti-inflammatory activity [2] | bactericidal activity [3] | toxicity toward mammalian cells [4]
1 | CC[C@H](C)[C@H](NC(=O)CN)C(=O)NCC(=O)N[C@@H](C)C(=O)N[C@H](C(=O)N[C@@H](CC(C)C)C(=O)N[C@@H](CCCCN)C(=O)N[C@H](C(=O)N[C@@H](CC(C)C)C(=O)N[C@H](C(=O)N[C@H](C(=O)NCC(=O)N[C@@H](CC(C)C)C(=O)N1CCC[C@H]1C(=O)N[C@@H](C)C(=O)N[C@@H](CC(C)C)C(=O)N[C@H](C(=O)N[C@@H](CO)C(=O)N[C@@H](Cc1c[nH]c2ccccc12)C(=O)N[C@H](C(=O)N[C@@H](CCCCN)C(=O)N[C@@H](CCCNC(=N)N)C(=O)N[C@@H](CCCCN)C(=O)N[C@@H](CCCNC(=N)N)C(=O)N[C@@H](CCC(N)=O)C(=O)N[C@@H](CCC(N)=O)C(N)=O)[C@@H](C)CC)[C@@H](C)CC)[C@@H](C)O)[C@@H](C)O)C(C)C)C(C)C [Melittin] | 92 |  |  | 
2 | Papiliocin |  | anti-inflammatory activity | bactericidal activity against both Gram-positive and Gram-negative bacteria | non-toxicity toward mammalian cells

— paper PMC7697948, “Deciphering Novel Antimicrobial Peptides from the Transcriptome of Papilio xuthus” (Insects, 2020)
